The results in this text go back to patent US12570666B2, “Furoindazole derivatives” (Bayer Aktiengesellschaft, priority 2019, dated 2026).

SMILES strings stand for the structures.

For this assay, the target named is T1, human GPR84 receptor (Homo sapiens, UniProt Q9NQS5).
T1 construct: frozen aliquots prepared by acCELLerate; host or cells: CHO-K1
Kind of assay: cAMP HTRF assay for identification of cellular GPR84 antagonists. The assay is classed as cell-based. To be noted: CHO-K1 cells stably expressing human GPR84; Forskolin + agonist 6-OAU (EC80); average or median values. The gist of the method: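 Forskolin-stimulated CHO-K1 cells stably expressing human GPR84, agonist-suppressed cAMP measured by HTRF (665/620 ratio) after lysis. Compounds at 11 concentrations, 20 μM to 0.07 nM, duplicate; normalized to DMSO and no-agonist controls; IC50 by 4-parameter fit.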
In general terms: TR-FRET usually uses a lanthanide donor and a delayed reading to cut background.

T1 sequence (Q9NQS5 whole entry): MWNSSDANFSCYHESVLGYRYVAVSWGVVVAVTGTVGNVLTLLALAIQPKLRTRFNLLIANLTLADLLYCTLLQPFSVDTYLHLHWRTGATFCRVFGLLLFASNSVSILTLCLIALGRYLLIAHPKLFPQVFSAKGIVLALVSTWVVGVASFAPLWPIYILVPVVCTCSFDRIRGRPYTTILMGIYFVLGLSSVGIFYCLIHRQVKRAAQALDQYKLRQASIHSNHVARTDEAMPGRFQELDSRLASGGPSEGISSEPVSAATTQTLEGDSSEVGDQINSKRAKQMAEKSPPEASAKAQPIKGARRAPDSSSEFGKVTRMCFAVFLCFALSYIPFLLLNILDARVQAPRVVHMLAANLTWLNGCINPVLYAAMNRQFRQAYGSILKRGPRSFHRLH

With `C[C@@H]1Cc2oc(C(=O)NCc3nccs3)c(C(F)(F)F)c2-c2nn(C[C@H]3COCCO3)cc21` (single isomer, unassigned) [Example 259, (4R or 4S)-2-{[(2S)-1,4-dioxan-2-yl]methyl}-4-methyl-N-[(1,3-thiazol-2-yl)methyl]-8-(trifluoromethyl)-4,5-dihydro-2H-furo[2,3-g]indazole-7-carboxamide], the IC50 is 5 nM.
In the case of `Cc1c(C(=O)NCCN2CCN(C)CC2)oc2c1-c1nn(Cc3ccccn3)cc1CC2` [Example 4, 8-methyl-N-[2-(4-methylpiperazin-1-yl)ethyl]-2-(pyridin-2-ylmethyl)-4,5-dihydro-2H-furo[2,3-g]indazole-7-carboxamide] it was 1620 nM; in that of `Cc1c(C(=O)NCC2CCC3(COC3)O2)oc2c1-c1nn(C[C@H]3COCCO3)cc1C1(CC1)C2` (mixture of isomers) [Example 201], 80 nM; in that of `O=C(NCCc1cccnc1)c1oc2c(c1C(F)(F)F)-c1nn(C[C@H]3COCCO3)cc1CC2` [Example 236, 2-[(2S)-1,4-Dioxan-2-ylmethyl]-N-[2-(pyridin-3-yl)ethyl]-8-(trifluormethyl)-4,5-dihydro-2H-furo[2,3-g]indazol-7-carboxamide], 8760 nM.
As for `O=C(NC[C@@H]1COCCO1)c1oc2c(c1C(F)(F)F)-c1nn(CC3CCN(CC4CC4)CC3)cc1CC2` [Example 310, 2-{[1-(cyclopropylmethyl)piperidin-4-yl]methyl}-N-{[(2R)-1,4-dioxan-2-yl]methyl}-8-(trifluoromethyl)-4,5-dihydro-2H-furo[2,3-g]indazole-7-carboxamide], the IC50 came out at 197 nM.
Take `O=C(NC[C@H]1CC(F)(F)CO1)c1oc2c(c1C(F)(F)F)-c1nn(C[C@H]3COCCO3)cc1CC2` (single isomer, unassigned) [Example 222-1, N-{[(2R or 2S)-4,4-difluorooxolan-2-yl]methyl}-2-{[(2S)-1,4-dioxan-2-yl]methyl}-8-(trifluoromethyl)-4,5-dihydro-2H-furo[2,3-g]indazole-7-carboxamide]: the IC50 is 12 nM.
In the case of `O=C(NC[C@@H]1COCCO1)c1oc2c(c1C(F)(F)F)-c1nn(Cc3ccccn3)cc1C1(CCC1)C2` [Example 273, N-[(2R)-1,4-Dioxan-2-ylmethyl]-2′-(pyridin-2-ylmethyl)-8′-(trifluormethyl)-2′,5′-dihydrospiro[cyclobutan-1,4′-furo[2,3-g]indazol]-7′-carboxamide], the IC50 turned out to be 9 nM.
`Cc1c(C(=O)NCc2cc(C3CC3)on2)oc2c1-c1nn(CC3COc4ncccc4O3)cc1CC2` (racemic) [Example 50, N-[(5-cyclopropyl-1,2-oxazol-3-yl)methyl]-2-[(2R/S)-2,3-dihydro[1,4]dioxino[2,3-b]pyridin-2-ylmethyl]-8-methyl-4,5-dihydro-2H-furo[2,3-g]indazole-7-carboxamide]: the IC50 stood at 35 nM.
For `Cc1c(C(=O)NCC2CCO2)oc2c1-c1nn(Cc3ccccn3)cc1CC2` (racemic) [Example 35, 8-methyl-N-[(2R/S)-oxetan-2-ylmethyl]-2-(pyridin-2-ylmethyl)-4,5-dihydro-2H-furo[2,3-g]indazole-7-carboxamide] the value was 470 nM; for `Cc1c(C(=O)NC[C@H]2CCC3(COC3)O2)oc2c1-c1nn(C[C@H]3COCCO3)cc1C1(CC1)C2` (single isomer, unassigned) [Example 201-2], 112 nM; for `Cc1c(C(=O)NCC2CCC(=O)O2)oc2c1-c1nn(Cc3ccccn3)cc1CC2` (single isomer, unassigned) [Example 39-2], 7050 nM.
In the case of `Cc1conc1CNC(=O)c1oc2c(c1C)-c1nn(Cc3ccccn3)cc1CC2` [Example 26, 8-methyl-N-[(4-methyl-1,2-oxazol-3-yl)methyl]-2-(pyridin-2-ylmethyl)-4,5-dihydro-2H-furo[2,3-g]indazole-7-carboxamide] it was 1190 nM; in that of `Cc1ccc(Cn2cc3c(n2)-c2c(oc(C(=O)NC[C@@H]4COCCO4)c2C(F)(F)F)CC3)cn1` [Example 191], 8 nM; in that of `CC1(C)CC[C@H](CNC(=O)c2oc3c(c2C(F)(F)F)-c2nn(C[C@H]4COCCO4)cc2CC3)O1` (single isomer, unassigned) [Example 223-1, N-{[(2R or 2S)-5,5-dimethyloxolan-2-yl]methyl}-2-{[(2S)-1,4-dioxan-2-yl]methyl}-8-(trifluoromethyl)-4,5-dihydro-2H-furo[2,3-g]indazole-7-carboxamide], 12 nM.
As to `Cc1cccc(Cn2cc3c(n2)-c2c(oc(C(=O)NCC4COc5ncccc5O4)c2C)CC3)n1` (racemic) [Example 70, N-[(2R/S)-2,3-dihydro[1,4]dioxino[2,3-b]pyridin-2-ylmethyl]-8-methyl-2-[(6-methylpyridin-2-yl)methyl]-4,5-dihydro-2H-furo[2,3-g]indazole-7-carboxamide], the concentration for half-maximal inhibition (IC50) was 77 nM.
Take `Cn1ccc(CNC(=O)c2oc3c(c2C(F)(F)F)-c2nn(Cc4ccccn4)cc2C2(CCC2)C3)n1` [Example 276, N-[(1-Methyl-1H-pyrazol-3-yl)methyl]-2′-(pyridin-2-ylmethyl)-8′-(trifluormethyl)-2′,5′-dihydrospiro[cyclobutan-1,4′-furo[2,3-g]indazol]-7′-carboxamide]: the IC50 was determined as 156 nM.
For the compound `Cc1c(C(=O)NCC2CCC(=O)O2)oc2c1-c1nn(Cc3ccccn3)cc1CC2` (racemic) [Example 39, 8-methyl-N-{[(2R/S)-5-oxotetrahydrofuran-2-yl]methyl}-2-(pyridin-2-ylmethyl)-4,5-dihydro-2H-furo[2,3-g]indazole-7-carboxamide], the IC50 was found to be 960 nM.
Turning to `Cc1cc(Cn2cc3c(n2)-c2c(oc(C(=O)NC[C@@H]4CCCO4)c2C)CC3)cc(C)n1` [Example 81, 2-[(2,6-dimethylpyridin-4-yl)methyl]-8-methyl-N-[(2S)-tetrahydrofuran-2-ylmethyl]-4,5-dihydro-2H-furo[2,3-g]indazole-7-carboxamide], the IC50 came out at 380 nM.
Turning to `Cc1c(C(=O)NCc2cc(CN3CCOCC3)on2)oc2c1-c1nn(Cc3ccccn3)cc1CC2` [Example 11, 8-methyl-N-{[5-(morpholin-4-ylmethyl)-1,2-oxazol-3-yl]methyl}-2-(pyridin-2-ylmethyl)-4,5-dihydro-2H-furo[2,3-g]indazole-7-carboxamide], the IC50 is > 20000 nM.
Regarding `Cn1ccc(CNC(=O)c2oc3c(c2C2CC2)-c2nn(Cc4ccccn4)cc2CC3)n1` [Example 121, 8-cyclopropyl-N-[(1-methyl-1H-pyrazol-3-yl)methyl]-2-(pyridin-2-ylmethyl)-4,5-dihydro-2H-furo[2,3-g]indazole-7-carboxamide], the IC50 worked out at 67 nM.
For `Cc1c(C(=O)NC[C@@H]2CCCO2)oc2c1-c1nn(Cc3cccnc3)cc1CC2` [Example 44, 8-methyl-2-(pyridin-3-ylmethyl)-N-[(2S)-tetrahydrofuran-2-ylmethyl]-4,5-dihydro-2H-furo[2,3-g]indazole-7-carboxamide] the value was 18 nM; for `O=C(NC[C@@H]1CCCO1)c1oc2c(c1C(F)(F)F)-c1nn(Cc3ccncc3)cc1C1(CCC1)C2` [Example 280, 2′-(Pyridin-4-ylmethyl)-N-[(2S)-tetrahydrofuran-2-ylmethyl]-8′-(trifluormethyl)-2′,5′-dihydrospiro[cyclobutan-1,4′-furo[2,3-g]indazol]-7′-carboxamide], 16 nM.

The IC50 is the concentration at which inhibition is half-maximal.
